Experimental data reported in ChEMBL document CHEMBL1145657, “Chemistry of Acronycine I. Carbon- 13 NMR Studies of Acronycine and Related Compounds” (J Nat Prod, 1983).
The source made the active and inactive calls. No cut-off for these calls is given here.

System: KB
Test: Cytotoxicity against human KB cells
Assay type: functional, cell-based

Compound | Activity
Cn1c2ccccc2c(=O)c2c(O)cc3c(c21)CCC(C)(C)O3 | inactive
Cn1c2ccccc2c(=O)c2c(O)cc3c(c21)C=CC(C)(C)O3 | inactive
